Values of other authors in patent US5385885A, “Inhibition of smooth muscle cell proliferation by antistasin and tick anticoagulant peptide” (priority 1991, dated 1995).

How the values were obtained:
[1] = test system: smooth muscle cell proliferative response to balloon catheter injury; settings: rat model; Powell et al.; cited from earlier work
[2] = test system: smooth muscle cells of rat carotid arteries; settings: site-delivered; after balloon catheterization; Edelman et al.; cited from earlier work

CCOC(=O)[C@H](CCc1ccccc1)N[C@H]1CCCN2CCC[C@@H](C(=O)O)N2C1=O [cilazapril]
Smooth muscle cell proliferative response to balloon catheter injury [1]: specifically inhibits

heparin
Proliferation of smooth muscle cells [2]: effectively diminished
